Measured values: patent publication US9636409B2, “Enzyme and receptor modulation using covalent conjugates of alpha,alpha-disubstituted glycine esters” (GlaxoSmithKline Intellectual Property Development Limited, priority 2008, dated 2017)
Where two headings read alike, the source gives them in different places.

Tests used:
[1] = test system: phosphorylation of MAPKAP-2 in U937 cells; test: p38 MAP Kinase cellular assay: inhibition of phosphorylation of MAPKAP2 in U937 cells; assay type: cell-based; conditions: for IC50: Homo sapiens, U-937
Procedure: p38 MAP Kinase Cellular Assay: Inhibition of Phosphorylation of MAPKAP2
U937 or HUT78 cells were plated in RPMI 1640, and were incubated at 37° C., 5% CO2 for 18 hours. 10 mM stocks of compounds were diluted media/0.1% DMSO to give a log or semi-log dilution series. The wells for ‘no treatment’ and ‘anisomycin’ were treated with 0.1% DMSO only. The cells were incubated at 37° C., 5% CO2 for a further 4 hours. Anisomycin was added to all wells except ‘no treatment’ at a final concentration of 10 μM. The cells were incubated at 37° C., 5% CO2 for 30 minutes before harvest. Plates were stood on ice whilst harvesting, and all following steps were carried out at 4° C. The cells were pelleted at 1000 rpm for 10 minutes at 4° C., the media aspirated, and the pellet washed with cold PBS. The pellets were lysed in 120 μl of SDS lysis buffer (62.5 mM Tris, pH 6.8, 2% SDS, 10% glycerol, 50 mM DTT, with protease inhibitors and phosphatase inhibitors added according to the manufacturers' recommendations). After 30 minutes on ice, the samples were sonicated for 5 seconds before centrifugation at 13,000 rpm 4° C. for 10 minutes to remove cell debris. 10 μl of the resulting gel samples were loaded per lane on NOVEX 4-12% Bis-Tris MOPS gels. Membranes from western transfer of gels were blotted with anti-phospho MAPKAP2, anti-phospho HSP27 and anti GAPDH according to the manufacturers' Instructions. Signal was visualised using HRP-Hnked anti-rabbit or anti-mouse antibodies, ECL reagent and ECL film. IC50 values for the various compounds were visualised from the resulting photographic images, using both band-shift and signal intensity.

recombinant hCE-1 = target: T1, recombinant hCE-1 (Homo sapiens, UniProt P23141); test: HCE-1 carboxylesterase assay; assay type: in vitro ADME; conditions: result in words
T1 sequence (P23141 18-567): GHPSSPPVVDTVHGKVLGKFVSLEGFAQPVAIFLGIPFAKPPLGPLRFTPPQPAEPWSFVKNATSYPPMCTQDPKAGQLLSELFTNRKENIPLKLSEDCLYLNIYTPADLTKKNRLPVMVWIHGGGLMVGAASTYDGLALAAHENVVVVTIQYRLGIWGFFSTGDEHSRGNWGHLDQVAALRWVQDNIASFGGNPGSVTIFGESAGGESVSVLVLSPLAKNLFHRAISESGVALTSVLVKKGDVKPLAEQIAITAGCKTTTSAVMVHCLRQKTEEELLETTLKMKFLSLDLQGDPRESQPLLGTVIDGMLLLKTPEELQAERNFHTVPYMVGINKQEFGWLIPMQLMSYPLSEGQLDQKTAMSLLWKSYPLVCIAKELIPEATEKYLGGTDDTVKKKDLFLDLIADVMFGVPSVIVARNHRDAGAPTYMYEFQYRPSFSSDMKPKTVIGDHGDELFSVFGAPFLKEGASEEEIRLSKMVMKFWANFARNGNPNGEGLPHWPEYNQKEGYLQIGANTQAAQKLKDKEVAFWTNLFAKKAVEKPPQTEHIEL
Procedure: HCE-1 Carboxylesterase Assay
Hydrolysis of esters to the corresponding carboxylic acids by hCE-1 can be measured using the following procedure. At zero time, 100 μl of recombinant hCE-1 at a concentration of 6 μg/mL in phosphate assay buffer (K2PO4 100 mM, KCl 40 mM, pH 7.4) was added to an equal volume of assay buffer containing 5 μM ester substrate. After thorough mixing, triplicate samples were incubated for 0, 20 or 80 minutes at 37° C. At the appropriate time, hydrolysis was stopped by the addition of 600 μl of acetonitrile. For zero time samples, the acetonitrile was added prior to the enzyme. The samples were analysed for the ester and its corresponding carboxylic acid at room temperature by LCMS (Sciex API 3000, HP1100 binary pump, CTC PAL). Chromatography was based on a […] (75×2.1 mm) column and a mobile phase of 5-95% acetonitrile in water/0.1% formic add. Levels of the acid, the hydrolysis product, after 80 minutes are expressed in ng/mL.

U937 cells = test: Cell accumulation assay in U937 cells; assay type: in vitro ADME; conditions: U937 versus HUT 78; result in words
Procedure: Cells (8×10^4/mL) were incubated at 37° C. in culture medium containing 6 μM compound in a 5% (v/v) CO2-humidified atmosphere. Incubations were terminated after 6 h by centrifugation of 25 mL aliquots of the cell suspension at 300 g for 5 minutes at 4° C. 0.2 mL samples of the culture media supernatants were added to 4 volumes of acetonitrile (Sigma-Aldrich). After decanting the supernatant, the residual cell pellet (2×10^6 cells) was extracted into 1 mL of acetonitrile. Samples were then analysed for the ester and acid metabolite at room temperature by LC/MS/MS (Sciex API3000). Chromatography was based on a MeCN (75×21 mm) column with a 5-95% (v/v) acetonitrile, 0.1% (v/v) formic acid mobile phase. For the zero time samples, the cell suspension was chilled and centrifuged as soon as the ester had been added and then extracted into acetonitrile as described. Levels in cells are expressed as ng/mL.

IC50 ([1]; Table 1 (biology), U937 cells, read-out: Inhibition of phosphorylation of MAPKAP-2 in U937 cells (IC50)): 10 nM
IC50 ([1]; Table 2, U937 monocyte cell line, read-out: Inhibition of phosphorylation of MAPKAP-2 in U937 cells (IC50, nM) (monocyte cell line)): 10 nM
Ratio cell IC50s to enzyme IC50 ([1]; U937 MAPKAP-2 IC50 to P38 enzyme IC50): 0.2
hydrolysis by hCE-1 (recombinant hCE-1): hydrolysed by hCE-1
Compound: CC(C)(NCCc1ccc(-n2c(N)c(C(=O)c3ccc(F)cc3F)ccc2=O)cc1)C(=O)OC1CCCC1 [Example 1]
potency in monocytic versus non monocytic cell lines (MAPKAP-2 phosphorylation) ([1]; U937 versus HUT 78): 100 times
potency in the p38 cellular assay compared with the parent compound ([1]; versus Compound I): significantly more potent than the parent compound
accumulation in monocytic versus non-monocytic cell line (U937 cells): only accumulates in the monocytic cell line
